Data: article PMC11381307 (Frontiers in Pharmacology, 2024)

Experiments:
[1] = target: MRP2 (Homo sapiens, UniProt Q92887); assay: biochemical
Procedure: The substrate study was performed at 37°C with a water bath using a mixture comprising of 10 μL of vesicle membranes (5 mg/mL) and 10 μL of Buffer A2 (replaced with 5 μL Reagent G and 5 μL inhibitors for the inhibitor groups). The mixture was pre-incubated at 37°C with a water bath for 5 min. Meanwhile, 10 μL of dosing solution of the compounds or probe substrates and 10 μL of Reagent C2 (ATP) or D2 (AMP, as the non-ATP dependent control) were mixed and pre-incubated at 37°C for 5 min. Following pre-incubation, the two mixtures were mixed and incubated for an additional 5 min.
After incubation, the reactions were stopped with ice-cold Buffer B, filtered through a 96-well filter plate to separate vesicle-associated ligands from the matrix, and washed five times with ice-cold Buffer B. The vesicles on the filer plate were dissolved using 50 μL of 80% methanol (v/v), and the filtrate was collected by centrifugation at 2000 rpm for 2 min. The dissolution and centrifugation procedures were repeated. […] The supernatant was collected to quantify the amount of compound or substrate using LC-MS. […]
For the substrate assay, the amount of compounds in the vesicle was determined with LC-MS to calculate the transport activity, UR, and inhibition rate using Equations 11–13, which were used to determine whether the compounds were substrates of the transporter. […]

[2] = tested on: UGT1A9/2B7; details: 50 μM, 96 h treatment; 100 μM substrate, 30 min
Procedure: (§1) Cryopreserved human hepatocytes were recovered in a pre-warmed incubation medium, diluted to a viable cell density (∼0.7 × 10^6 cells/mL) using a plating medium, followed by the addition of 100 μL hepatocytes into each well of a collagen I-coated 96-well plate. The cell monolayer was formed after an overnight incubation period at 37°C under 5%CO2. The plating medium was then replaced with an incubation medium for further culture. On the second day, an incubation medium containing different concentrations of either compound, the inducer omeprazole (final concentration of 50 μM), or vehicle (0.1% [v/v] dimethyl sulfoxide [DMSO]). […] At the end of the incubation period, the medium was replaced with a substrate for UGT and MPA. […] Finally, the supernatant was collected after centrifugation at 4,000 rpm for 10 min and analyzed for glucuronide formation using liquid chromatography-mass spectrometry (LC-MS).
(§2) The formation of glucuronide metabolites, as determined with LC-MS, was used to calculate the formation rate linked to enzyme activity according to Equation 1. […]
(§3) The percentage of enzyme activity relative to the NC (%) was determined using Equation 2. […]
(§4) The formation of 4-trifluoromethyl-7-hydroxycoumarin glucuronide and estradiol-3-glucuronide was detected to evaluate the induction of UGT enzyme activity compared with that in the NC group.

[3] = tested on: UGT1A1/1A3; details: 50 μM, 96 h treatment; 100 μM substrate, 30 min
Procedure: as §1, §2, §3, §4

[4] = tested on: UGT; assay: Human hepatocyte UGT induction study, conversion of MPA to MPAG; type: cell-based; details: 50 μM, 96 h treatment
Procedure: Cryopreserved human hepatocytes were recovered in a pre-warmed incubation medium, diluted to a viable cell density (∼0.7 × 10^6 cells/mL) using a plating medium, followed by the addition of 100 μL hepatocytes into each well of a collagen I-coated 96-well plate. The cell monolayer was formed after an overnight incubation period at 37°C under 5%CO2. The plating medium was then replaced with an incubation medium for further culture. On the second day, an incubation medium containing different concentrations of either compound, the inducer omeprazole (final concentration of 50 μM), or vehicle (0.1% [v/v] dimethyl sulfoxide [DMSO]). […] At the end of the incubation period, the medium was replaced with a substrate for UGT and MPA. Following a further incubation of 15 or 30 min at 37°C under 5% CO2, 100 μL of the reaction medium was transferred to 400 μL of ice-cold methanol containing internal standard (IS) to terminate the reaction. Finally, the supernatant was collected after centrifugation at 4,000 rpm for 10 min and analyzed for glucuronide formation using liquid chromatography-mass spectrometry (LC-MS).
The formation of glucuronide metabolites, as determined with LC-MS, was used to calculate the formation rate linked to enzyme activity according to Equation 1. Formation rate pmol/10^6 cells/min=amount of glucuronide metabolites formation pmol/number of cells 10^6 cells×incubation time min (1)
The percentage of enzyme activity relative to the NC (%) was determined using Equation 2. Relative enzyme activity % of NC=formation rate in the compound−treated group/that in NC×100 (2)

[5] = target: T1, OAT3 (Homo sapiens, UniProt Q8TCC7); assay: Transporter substrate study using HEK293-OAT3 cells; details: for uptake ratio (UR) mediated by OAT3: 10 μM
T1 sequence (Q8TCC7 1-542): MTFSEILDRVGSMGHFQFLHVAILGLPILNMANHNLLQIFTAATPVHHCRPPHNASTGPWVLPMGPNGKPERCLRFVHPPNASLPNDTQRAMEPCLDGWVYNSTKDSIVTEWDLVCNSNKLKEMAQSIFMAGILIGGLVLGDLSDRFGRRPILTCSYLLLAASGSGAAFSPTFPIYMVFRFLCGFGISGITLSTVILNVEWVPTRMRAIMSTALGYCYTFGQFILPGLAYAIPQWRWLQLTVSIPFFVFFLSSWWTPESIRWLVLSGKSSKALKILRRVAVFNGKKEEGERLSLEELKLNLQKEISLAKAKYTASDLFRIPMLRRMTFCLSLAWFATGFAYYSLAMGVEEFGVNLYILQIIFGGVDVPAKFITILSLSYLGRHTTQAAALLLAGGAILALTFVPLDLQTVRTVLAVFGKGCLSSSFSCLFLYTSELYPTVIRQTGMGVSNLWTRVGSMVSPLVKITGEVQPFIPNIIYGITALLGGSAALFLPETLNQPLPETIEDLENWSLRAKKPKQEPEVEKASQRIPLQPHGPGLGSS

[6] = target: T2, human OAT1 (Homo sapiens, UniProt Q4U2R8)
T2 sequence (Q4U2R8 1-563): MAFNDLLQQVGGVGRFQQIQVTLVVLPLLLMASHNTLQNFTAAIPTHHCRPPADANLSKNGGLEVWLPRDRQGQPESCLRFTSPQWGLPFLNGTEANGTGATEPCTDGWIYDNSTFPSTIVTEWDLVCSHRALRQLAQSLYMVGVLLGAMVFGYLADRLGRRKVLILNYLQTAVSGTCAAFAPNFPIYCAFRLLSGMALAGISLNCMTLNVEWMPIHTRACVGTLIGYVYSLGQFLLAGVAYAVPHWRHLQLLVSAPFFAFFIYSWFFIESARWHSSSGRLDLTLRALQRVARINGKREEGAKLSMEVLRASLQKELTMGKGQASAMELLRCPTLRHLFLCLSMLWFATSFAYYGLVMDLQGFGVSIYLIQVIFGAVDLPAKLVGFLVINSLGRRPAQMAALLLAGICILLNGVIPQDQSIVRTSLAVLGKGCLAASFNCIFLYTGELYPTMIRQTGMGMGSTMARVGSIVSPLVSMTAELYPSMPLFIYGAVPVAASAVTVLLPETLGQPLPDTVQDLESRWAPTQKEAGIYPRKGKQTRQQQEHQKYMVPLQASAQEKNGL

[7] = criterion UR ≥2.0 and inhibition ≥50%

MRP2, sequence (Q92887 whole entry): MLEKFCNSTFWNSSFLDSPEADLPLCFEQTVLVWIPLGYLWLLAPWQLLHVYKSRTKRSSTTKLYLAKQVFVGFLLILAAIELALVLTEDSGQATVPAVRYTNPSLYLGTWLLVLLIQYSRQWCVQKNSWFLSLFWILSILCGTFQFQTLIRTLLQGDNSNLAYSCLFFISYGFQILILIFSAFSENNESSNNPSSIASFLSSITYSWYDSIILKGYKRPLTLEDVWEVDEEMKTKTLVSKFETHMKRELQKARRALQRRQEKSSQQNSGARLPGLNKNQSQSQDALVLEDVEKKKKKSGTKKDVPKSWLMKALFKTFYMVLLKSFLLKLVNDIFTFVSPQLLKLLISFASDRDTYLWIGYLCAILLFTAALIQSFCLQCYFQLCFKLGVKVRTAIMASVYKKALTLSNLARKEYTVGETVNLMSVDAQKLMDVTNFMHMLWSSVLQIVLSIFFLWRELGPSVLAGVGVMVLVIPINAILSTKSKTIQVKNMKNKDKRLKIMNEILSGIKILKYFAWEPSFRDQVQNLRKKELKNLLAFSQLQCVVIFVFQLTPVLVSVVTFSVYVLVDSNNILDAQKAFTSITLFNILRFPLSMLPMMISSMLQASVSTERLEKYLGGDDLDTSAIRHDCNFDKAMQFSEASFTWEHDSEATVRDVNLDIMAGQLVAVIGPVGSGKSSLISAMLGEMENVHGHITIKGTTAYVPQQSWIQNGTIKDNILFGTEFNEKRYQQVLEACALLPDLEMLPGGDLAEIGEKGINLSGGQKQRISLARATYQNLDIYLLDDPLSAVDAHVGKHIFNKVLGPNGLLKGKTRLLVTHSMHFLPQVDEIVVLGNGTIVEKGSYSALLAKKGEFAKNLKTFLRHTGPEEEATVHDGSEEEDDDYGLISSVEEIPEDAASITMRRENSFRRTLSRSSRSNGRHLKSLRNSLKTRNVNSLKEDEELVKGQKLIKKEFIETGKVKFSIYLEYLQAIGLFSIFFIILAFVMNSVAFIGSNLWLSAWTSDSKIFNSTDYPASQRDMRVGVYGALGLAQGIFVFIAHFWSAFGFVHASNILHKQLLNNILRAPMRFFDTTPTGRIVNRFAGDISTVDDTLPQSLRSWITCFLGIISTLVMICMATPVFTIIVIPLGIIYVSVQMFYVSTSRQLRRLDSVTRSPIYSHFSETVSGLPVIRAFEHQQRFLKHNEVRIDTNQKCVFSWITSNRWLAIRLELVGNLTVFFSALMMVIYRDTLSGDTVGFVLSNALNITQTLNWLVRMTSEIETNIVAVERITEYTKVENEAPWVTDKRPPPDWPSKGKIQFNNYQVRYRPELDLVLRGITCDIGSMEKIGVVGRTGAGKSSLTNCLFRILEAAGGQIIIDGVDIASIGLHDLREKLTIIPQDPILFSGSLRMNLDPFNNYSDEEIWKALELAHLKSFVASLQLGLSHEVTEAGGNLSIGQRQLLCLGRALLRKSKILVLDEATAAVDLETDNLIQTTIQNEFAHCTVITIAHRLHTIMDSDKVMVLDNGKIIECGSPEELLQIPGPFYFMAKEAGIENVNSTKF

CCc1oc2ccccc2c1C(=O)c1cc(Br)c(O)c(Br)c1 [benzbromarone]
IC50 [1]: 17.6 µM

COc1ccc2[nH]c([S+]([O-])Cc3ncc(C)c(OC)c3C)nc2c1 (stereo not drawn) [omeprazole]
4-trifluoromethyl-7-hydroxycoumarin glucuronidation activity, % of NC (Mean) [2]: 145 % of NC
β-estradiol glucuronidation activity, % of NC (Mean) [3]: 243 % of NC
formation of MPAG, % of NC (Mean) [4]: 110 % of NC

COc1c(C)c2c(c(O[C@@H]3O[C@H](C(=O)O)[C@@H](O)[C@H](O)[C@H]3O)c1C/C=C(\C)CCC(=O)O)C(=O)OC2 [MPAG, 7-O-mycophenolic acid glucuronide]
uptake ratio (UR) mediated by OAT3 ([5]; following incubation with probenecid): 1.19
uptake ratio (UR) mediated by OAT3 ([5]; without inhibitor): 2.47
substrate of OAT3 (in words) [5, 7]: weak substrate for OAT3
uptake ratio (UR) mediated by OAT1 ([6]; 0.5, 1, and 10 μM): less than 2.0
substrate of OAT1 (in words) [6, 7]: not a substrate of OAT1
